The numbers were not newly measured in paper PMC6259197, “Alkaloids from Stems of Esenbeckia leiocarpa Engl. (Rutaceae) as Potential Treatment for Alzheimer Disease” (Molecules, 2010), which cites them from elsewhere.

In one data set the test system is brine shrimp. As to conditions: alkaloids isolated from leaves of E. belizencis.
The test system of data set [1] is Leucoagaricus gongylophorus. Also noted: method as in doi:10.1590/S0103-50532002000100010. As to conditions: alkaloids from Raulinoa echinata; symbiotic fungus of leaf-cutting ants.
Another data set relates to Pectinophora gossypiella. Details: method as in PMID 1965201. As to conditions: activity of extract attributed to leiokinine A and B.

For the molecule `COc1c2ccoc2nc2c(OC)c3c(cc12)OCO3` [flindersiamine], the “brine shrimp toxicity LC50” value in the data set on brine shrimp is > 1,000 ppm. Besides, the “antifungal activity against Leucoagaricus gongylophorus” value in data set [1] was “antifungal activity”.
With `COc1cc2nc3occc3c(OC)c2cc1OC` [kokusaginine], the mutagenic activity result is “weak mutagenic activity”. In addition, the “brine shrimp toxicity LC50” value in the data set with brine shrimp is 367 ppm. Also, in data set [1], the “antifungal activity against Leucoagaricus gongylophorus” value is on record as “antifungal activity”.
Regarding `CCCc1c(OC)c(=O)c2ccccc2n1C` [leiokinine A], the “antifeedant activity against pink bollworm” value with Pectinophora gossypiella is on record as “weak antifeedant activity”.
Regarding `COc1c2cc3c(cc2nc2occc12)OCO3` [maculine], the “antifungal activity against Leucoagaricus gongylophorus” value in data set [1] is recorded as “antifungal activity”.
For the molecule `COc1ccc2c(OC)c3ccoc3nc2c1OC` [skimmianine], the mutagenic activity result is “weak mutagenic activity”. In data set [1], the “antifungal activity against Leucoagaricus gongylophorus” value was “antifungal activity”.
leiokinine B: the “antifeedant activity against pink bollworm” value in the data set with Pectinophora gossypiella was “weak antifeedant activity”.
